Reference: PubChem BioAssay AID1918957 (Molecular Pharmacology Branch, DTP, NCI, 2023)

Tested on: NCI-H1876 complex spheroid viability
Assay: Anticancer human tumor NCI-H1876 cell line growth inhibition [LSD1];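 also: spheroids exposed to compounds for one week before readout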;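 as to viability, T/C: 100% = DMSO vehicle-treated spheroids so lower means fewer viable cells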
Details: for IC50: curve of first compound; for viability, T/C: stronger effect = lower value
Procedure, shortened: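 Multicellular complex spheroids of tumor cells with human endothelial cells (HUVEC) and mesenchymal stem cells; the LSD1 inhibitor iadademstat was combined with standard-of-care or investigational agents. Top concentration at or near clinical Cmax, half-log dilutions; final DMSO ≤0.25%.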

[1] = second compound 0.1 µM, first compound 0.0316 µM
[2] = second compound 0.1 µM, first compound 0.1 µM
[3] = second compound 0.1 µM, first compound 0.316 µM
[4] = second compound 0.1 µM, first compound 1 µM
[5] = second compound 0.1 µM, first compound 3.16 µM
[6] = second compound 0.1 µM, first compound 10 µM
[7] = second compound 0.316 µM, first compound 0.0316 µM
[8] = second compound 0.316 µM, first compound 0.1 µM
[9] = second compound 0.316 µM, first compound 0.316 µM
[10] = second compound 0.316 µM, first compound 1 µM
[11] = second compound 0.316 µM, first compound 3.16 µM
[12] = second compound 0.316 µM, first compound 10 µM
[13] = second compound 1 µM, first compound 0.0316 µM
[14] = second compound 1 µM, first compound 0.1 µM
[15] = second compound 1 µM, first compound 0.316 µM
[16] = second compound 1 µM, first compound 1 µM
[17] = second compound 1 µM, first compound 3.16 µM
[18] = second compound 1 µM, first compound 10 µM
[19] = second compound 3.16 µM, first compound 0.0316 µM
[20] = second compound 3.16 µM, first compound 0.1 µM
[21] = second compound 3.16 µM, first compound 0.316 µM
[22] = second compound 3.16 µM, first compound 1 µM
[23] = second compound 3.16 µM, first compound 3.16 µM
[24] = second compound 3.16 µM, first compound 10 µM
[25] = second compound 10 µM, first compound 0.0316 µM
[26] = second compound 10 µM, first compound 0.1 µM
[27] = second compound 10 µM, first compound 0.316 µM
[28] = second compound 10 µM, first compound 1 µM
[29] = second compound 10 µM, first compound 3.16 µM
[30] = second compound 10 µM, first compound 10 µM
[31] = second compound 0.1 µM, first compound 0.00316 µM
[32] = second compound 0.1 µM, first compound 0.01 µM
[33] = second compound 0.316 µM, first compound 0.00316 µM
[34] = second compound 0.316 µM, first compound 0.01 µM
[35] = second compound 1 µM, first compound 0.00316 µM
[36] = second compound 1 µM, first compound 0.01 µM
[37] = second compound 3.16 µM, first compound 0.00316 µM
[38] = second compound 3.16 µM, first compound 0.01 µM
[39] = second compound 10 µM, first compound 0.00316 µM
[40] = second compound 10 µM, first compound 0.01 µM

With CC(C)c1c(-c2ccccc2)nc2c(C#N)c[nH]n2c1=O + NC1CCC(NC2CC2c2ccccc2)CC1 the IC50 (second compound 0.1 µM) was 7010 nM, the IC50 (second compound 0.316 µM) was 7170 nM and the IC50 (second compound 1 µM) was 6830 nM. For the same molecule, the IC50 (second compound 3.16 µM) was 6120 nM, the IC50 (second compound 10 µM) was 6210 nM and the viability, T/C [1] was 100%. The viability, T/C [2] was 97.1%, the viability, T/C [3] was 109% and the viability, T/C [4] was 97%. For the same molecule, the viability, T/C [5] was 94.2%, the viability, T/C [6] was 30.1% and the viability, T/C [7] was 90.2%. The viability, T/C [8] was 106%, the viability, T/C [9] was 103% and the viability, T/C [10] was 88.9%. It also gave a viability, T/C [11] of 93.1%, a viability, T/C [12] of 32.4% and a viability, T/C [13] of 97.1%. It also gave a viability, T/C [14] of 101%, a viability, T/C [15] of 99.8% and a viability, T/C [16] of 95.1%. For the same molecule, the viability, T/C [17] was 89.7%, the viability, T/C [18] was 30.7% and the viability, T/C [19] was 99%. It also gave a viability, T/C [20] of 106%, a viability, T/C [21] of 102% and a viability, T/C [22] of 92%. The viability, T/C [23] was 88.2%, the viability, T/C [24] was 22.5% and the viability, T/C [25] was 89.4%. The viability, T/C [26] was 93.6%, the viability, T/C [27] was 92.6% and the viability, T/C [28] was 99.3%. It also gave a viability, T/C [29] of 90.5% and a viability, T/C [30] of 21.3%.
CC1COCCN1c1cc(-c2ccnn2C)c2ccnc(-c3ccn[nH]3)c2n1 (stereo not given) + NC1CCC(NC2CC2c2ccccc2)CC1 gave an IC50 (second compound 0.1 µM) of 19.9 nM, an IC50 (second compound 0.316 µM) of 21.9 nM and an IC50 (second compound 1 µM) of 19.1 nM. The IC50 (second compound 3.16 µM) was 18.7 nM, the IC50 (second compound 10 µM) was 9.68 nM and the viability, T/C [31] was 86.9%. The viability, T/C [32] was 70.5%, the viability, T/C [1] was 34.9% and the viability, T/C [2] was 25.3%. The viability, T/C [3] was 23.4%, the viability, T/C [4] was 12.1% and the viability, T/C [33] was 83.5%. The viability, T/C [34] was 79.7%, the viability, T/C [7] was 35.7% and the viability, T/C [8] was 28.7%. The viability, T/C [9] was 11%, the viability, T/C [10] was 21.8% and the viability, T/C [35] was 80.5%. The viability, T/C [36] was 68.3%, the viability, T/C [13] was 35.9% and the viability, T/C [14] was 15.2%. The viability, T/C [15] was 11.6%, the viability, T/C [16] was 12.7% and the viability, T/C [37] was 77.4%. For the same molecule, the viability, T/C [38] was 66.8%, the viability, T/C [19] was 36% and the viability, T/C [20] was 16%. For the same molecule, the viability, T/C [21] was 12.4%, the viability, T/C [22] was 12.7% and the viability, T/C [39] was 64.5%. The viability, T/C [40] was 50.2%, the viability, T/C [25] was 31.1% and the viability, T/C [26] was 19.9%. It also gave a viability, T/C [27] of 16.7% and a viability, T/C [28] of 11.4%.
COc1ccc([C@@H](O)c2cc(-c3ncnc4cc(N5CCOCC5)ccc34)c(F)cc2Cl)nn1 + NC1CCC(NC2CC2c2ccccc2)CC1 showed an IC50 (second compound 0.1 µM) of 3070 nM, an IC50 (second compound 0.316 µM) of 3490 nM and an IC50 (second compound 1 µM) of 3780 nM. It also gave an IC50 (second compound 3.16 µM) of 3480 nM, an IC50 (second compound 10 µM) of 3130 nM and a viability, T/C [1] of 109%. The viability, T/C [2] was 97.4%, the viability, T/C [3] was 109% and the viability, T/C [4] was 91.2%. For the same molecule, the viability, T/C [5] was 49.2%, the viability, T/C [6] was 23.4% and the viability, T/C [7] was 112%. It also gave a viability, T/C [8] of 105%, a viability, T/C [9] of 95.8% and a viability, T/C [10] of 85.3%. The viability, T/C [11] was 50.7%, the viability, T/C [12] was 21.3% and the viability, T/C [13] was 113%. The viability, T/C [14] was 107%, the viability, T/C [15] was 99.7% and the viability, T/C [16] was 84.7%. It also gave a viability, T/C [17] of 53.9%, a viability, T/C [18] of 24.5% and a viability, T/C [19] of 113%. For the same molecule, the viability, T/C [20] was 113%, the viability, T/C [21] was 94.3% and the viability, T/C [22] was 76.4%. The viability, T/C [23] was 54.2%, the viability, T/C [24] was 21.9% and the viability, T/C [25] was 101%. For the same molecule, the viability, T/C [26] was 110%, the viability, T/C [27] was 94.2% and the viability, T/C [28] was 70.9%. The viability, T/C [29] was 53.3% and the viability, T/C [30] was 26%.
O=C(C=Cn1cnc(-c2cc(C(F)(F)F)cc(C(F)(F)F)c2)n1)NNc1cnccn1 + NC1CCC(NC2CC2c2ccccc2)CC1 gave an IC50 (second compound 0.1 µM) of 91.4 nM, an IC50 (second compound 0.316 µM) of 81.9 nM and an IC50 (second compound 1 µM) of 83.5 nM. It also gave an IC50 (second compound 3.16 µM) of 75.1 nM, an IC50 (second compound 10 µM) of 65.2 nM and a viability, T/C [31] of 98.9%. The viability, T/C [32] was 91.6%, the viability, T/C [1] was 90.2% and the viability, T/C [2] was 46.7%. It also gave a viability, T/C [3] of 23.5%, a viability, T/C [4] of 23.2% and a viability, T/C [33] of 104%. For the same molecule, the viability, T/C [34] was 96.6%, the viability, T/C [7] was 87.2% and the viability, T/C [8] was 42.1%. It also gave a viability, T/C [9] of 22.4%, a viability, T/C [10] of 20.3% and a viability, T/C [35] of 94.4%. For the same molecule, the viability, T/C [36] was 96%, the viability, T/C [13] was 86.9% and the viability, T/C [14] was 43.1%. For the same molecule, the viability, T/C [15] was 22.9%, the viability, T/C [16] was 20.6% and the viability, T/C [37] was 93.8%. For the same molecule, the viability, T/C [38] was 90.9%, the viability, T/C [19] was 85.8% and the viability, T/C [20] was 38.1%. The viability, T/C [21] was 23.2%, the viability, T/C [22] was 20.6% and the viability, T/C [39] was 94.4%. It also gave a viability, T/C [40] of 89.1%, a viability, T/C [25] of 75.7% and a viability, T/C [26] of 35.1%. For the same molecule, the viability, T/C [27] was 19.3% and the viability, T/C [28] was 19.8%.
